How the values were obtained:
delF508-CFTR = molecular target: T1, delF508-CFTR (Homo sapiens, UniProt P13569, DEL508-508); experiment: delF508-CFTR functional activity in primary human bronchial epithelial cells (HBECs), Multi-Transepithelial Clamp Circuit (MTECC-24) assay, equivalent short circuit current; type: cell-based; conditions: primary CF HBECs; for MTECC24 CFHBEC-Amax %: relative to reference combination 2 μM 3-(6-(1-(2,2-difluorobenzo[d][1,3]dioxol-5-yl)cyclopropane-1-carboxamido)-3-methylpyridin-2-yl)benzoic acid (24 h) + 0.5 μM N-(2,4-di-tert-butyl-5-hydroxyphenyl)-4-oxo-1,4-dihydroquinoline-3-carboxamide; for EC50: test compound added 24 h before assay, potentiator (S)-3-amino-6-methoxy-N-(3,3,3-trifluoro-2-hydroxy-2-methylpropyl)-5-(trifluoromethyl)picolinamide present at assay, mean of at least two replicates, read-out: MTECC24 CFHBEC-EC50
T1 construct: functional activity of the CFTR channel (Chloride ion transport) in patient derived primary human bronchial epithelial cells; host or cells: patient-derived primary human bronchial epithelial cells (HBECs), delF508-CFTR
T1 sequence (P13569 with tags, fused parts or gaps DEL508-508): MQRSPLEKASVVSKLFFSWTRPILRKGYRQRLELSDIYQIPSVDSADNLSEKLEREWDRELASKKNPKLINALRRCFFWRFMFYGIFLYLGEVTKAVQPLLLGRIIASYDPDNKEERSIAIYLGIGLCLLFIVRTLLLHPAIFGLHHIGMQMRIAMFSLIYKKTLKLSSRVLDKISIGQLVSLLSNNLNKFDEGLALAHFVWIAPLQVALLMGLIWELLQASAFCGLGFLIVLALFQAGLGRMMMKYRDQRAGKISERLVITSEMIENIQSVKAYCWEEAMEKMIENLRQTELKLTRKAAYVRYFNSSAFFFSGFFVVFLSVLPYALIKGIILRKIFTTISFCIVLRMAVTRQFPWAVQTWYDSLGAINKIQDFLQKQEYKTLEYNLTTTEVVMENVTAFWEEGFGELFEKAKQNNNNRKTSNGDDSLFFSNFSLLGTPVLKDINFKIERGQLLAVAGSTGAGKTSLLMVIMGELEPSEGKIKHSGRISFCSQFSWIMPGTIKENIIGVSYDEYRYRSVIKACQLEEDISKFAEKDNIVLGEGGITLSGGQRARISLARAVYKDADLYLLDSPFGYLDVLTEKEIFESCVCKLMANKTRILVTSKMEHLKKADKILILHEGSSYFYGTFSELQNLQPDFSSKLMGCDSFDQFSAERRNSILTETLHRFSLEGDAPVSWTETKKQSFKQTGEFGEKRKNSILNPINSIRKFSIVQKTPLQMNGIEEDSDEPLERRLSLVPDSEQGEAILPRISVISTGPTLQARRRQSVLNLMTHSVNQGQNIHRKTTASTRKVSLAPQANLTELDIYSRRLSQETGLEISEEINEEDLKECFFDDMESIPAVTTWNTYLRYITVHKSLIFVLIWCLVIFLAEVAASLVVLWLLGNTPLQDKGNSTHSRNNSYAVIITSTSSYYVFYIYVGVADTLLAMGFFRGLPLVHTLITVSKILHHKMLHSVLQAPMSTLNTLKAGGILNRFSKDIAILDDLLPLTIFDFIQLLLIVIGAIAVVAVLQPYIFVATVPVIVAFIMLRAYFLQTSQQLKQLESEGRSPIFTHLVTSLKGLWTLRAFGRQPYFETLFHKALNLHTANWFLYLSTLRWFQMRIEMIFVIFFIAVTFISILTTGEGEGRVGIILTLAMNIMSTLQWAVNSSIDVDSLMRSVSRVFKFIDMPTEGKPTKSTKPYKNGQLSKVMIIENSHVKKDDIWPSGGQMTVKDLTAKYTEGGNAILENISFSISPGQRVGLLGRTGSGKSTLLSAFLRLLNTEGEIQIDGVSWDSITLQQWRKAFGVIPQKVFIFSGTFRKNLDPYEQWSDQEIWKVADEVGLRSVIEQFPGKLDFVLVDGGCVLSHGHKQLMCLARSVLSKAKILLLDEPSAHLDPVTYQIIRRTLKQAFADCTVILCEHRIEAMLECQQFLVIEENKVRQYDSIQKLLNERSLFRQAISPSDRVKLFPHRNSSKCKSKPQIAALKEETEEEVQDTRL
From the text: Measurement of delF508-CFTR Functional Activity in Primary Human Bronchial Epithelial Cells (HBECs) Using Multi-Transepithelial Clamp Circuit (MTECC-24) Assay
This assay measures the functional activity of the CFTR channel (Chloride ion transport) in patient derived primary human bronchial epithelial cells with forskolin activation and in the presence of the CFTR corrector wherein the corrector is a compound of the invention and the potentiator is (S)-3-amino-6-methoxy-N-(3,3,3-trifluoro-2-hydroxy-2-methylpropyl)-5-(trifluoromethyl)picolinamide.
Primary human delF508-CFTR bronchial epithelial cells were purchased from Asterand and cultured according to previously established methods (Fulcher et al. (2005) Methods Mol Med 107: 183-206). Briefly, vendor supplied cells were rapidly defrosted and added to a T175 flask in 50 mL growth media (Lonza BEBM media with Lonza BEGM singlequots). Media was replaced after 24 h and then cells were fed every other day until cells were 80-90% confluent, at which point cells were cryopreserved. These P1 vials were thawed at 37° C. as needed and added to T175 flasks in 50 mL growth media at 5×10^5 cells/flask. Media was replaced after 24 h, and then cells were fed every other day until 80-90% confluent. Cells were lifted with 5 mL Accutase at 37° C. for 5 minutes, centrifuged at 1000 rpms for 5 min (300 g), and resuspended in differentiation media (50% BEBM in DMEM, BEGM singlequots, all trans retinoic acid (5×10·8M)). Cells were then counted and cell suspension was added to collagen coated inserts at 3×10^4 cells/insert in 0.15 mL with 0.5 mL differentiation media on the basolateral side.
Apical and basolateral media were replaced on alternate days, and following day 7 (or when confluent plus 2 days), air liquid interface was established for approximately two weeks by removal of apical media. One day prior to use on the MTECC24 system (EP-Devices, EP Design, Belgium), 0.15 mL of warmed (37° C.) PBS was added to the apical surface of the cultures and returned to humidifier (37° C., 5% CO2 incubator) for 30 min before aspirating the apical surface to remove any mucus.
Compound treatments were then prepared. Compound dilutions, typically a 10 point concentration response with 1 in 3 dilution steps, were made in 100% DMSO before dilution 1 in 1000 into differentiation medium with a final DMSO concentration of 0.1% or 0.2% for the study. Compound containing medium was then transferred into the wells of a 24 well plate at 0.5 mL per well and warmed for 30 min in a 37° C. incubator prior to transferring washed inserts into the compound containing plates. Cells were incubated in compound containing medium (basolateral only) for 24 h prior to measurement in the MTECC24 system.
Following 24 hr treatment, compound dilutions were prepared again, diluted 1 in 1000 into 37° C. assay medium (F-12 Coon's modified, 20 mM HEPES pH7.4 with TRIS Base, No FCS or bicarbonate). Cells which were treated for 24 h with test compound were then transferred into plates containing 0.75 mL compound treatment in assay medium (basolateral) and 0.25 mL of the compound containing assay medium was added to the apical surface. The plates were then transferred to the heated plate compartments of the MTECC24 system for 45 min prior to measurements (this can also be done in a non-CO2 37° C. humidified incubator). Basolateral temperature should not exceed 36.5° C. and apical temperature should be approximately 35.5° C.
Modulators were added sequentially as follows while the MTECC24 instrument recorded the equivalent short circuit current (Ieq)
Prior to dilution into F-12 medium the stocks are as follows: Amiloride stock is 10 mM in H2O
Forskolin Stock is 10 mM in 100% DMSO
(S)-3-amino-6-methoxy-N-(3,3,3-trifluoro-2-hydroxy-2-methylpropyl)-5-(trifluoromethyl)picolinamide is 0.5 mM stock in 100% DMSO INH-172 (4-[[4-Oxo-2-thioxo-3-[3-trifluoromethyl)phenyl]-5-thiazolidinylidene]methyl]benzoic acid) stock is 30 mM in 100% DMSO […]

delF508-CFTR-HRP = molecular target: T2, delF508-CFTR-HRP (Homo sapiens, UniProt P13569, DEL508-508); experiment: Measurement of delF508-CFTR-HRP surface expression in CFBE41o- cells (HRP luminescence); type: cell-based; conditions: for EC50: mean of at least two replicates; for Emax: CFBE41o-, read-out: DelF508-CFTR-HRP Amax %;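 for DelF508-CFTR-HRP Amax %: percent efficacy relative to a reference CFTR corrector compound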
T2 construct: expressed in transfected cells
T2 sequence (P13569 with tags, fused parts or gaps DEL508-508): as above
Outline: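 Stably transfected CFBE41o- cells carrying HRP in the fourth extracellular loop of delF508-CFTR, induced with 500 ng/mL doxycycline for 48 h, then compound-treated 24 h at 37° C (10-point, 3-fold, top 10 μM). Surface HRP detected by luminescent substrate; EC50 from logistic fit, triplicates, normalized to lowest-concentration median.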

Compound	MTECC24 CFHBEC-Amax % (delF508-CFTR) [%]	EC50 (delF508-CFTR) [nM]	DelF508-CFTR-HRP Amax % (delF508-CFTR-HRP) [%]	EC50 (delF508-CFTR-HRP) [nM]	Emax (delF508-CFTR-HRP) [%]
Cc1ccc(C2CCC(C)(C)OC2)c(OC2(C(=O)NS(=O)(=O)c3cccc(N4CCC(O)(c5ccc(Cl)cc5)CC4)n3)CC2)c1 (single isomer, unassigned) [Example 11-1-1, N-((6-(4-(4-chlorophenyl)-4-hydroxypiperidin-1-yl)pyridin-2-yl)sulfonyl)-1-(2-(6,6-dimethyltetrahydro-2H-pyran-3-yl)-5-methylphenoxy)cyclopropane-1-carboxamide]	148.8	394	920.6	920	–
Cc1ccc(C2CCCCC2)c(OC2(C(=O)NS(=O)(=O)c3cccc(N4CCN(c5ccc(F)cc5)CC4)n3)CC2)c1 [Example 2-55, 1-(2-Cyclohexyl-5-methylphenoxy)-N-((6-(4-(4-fluorophenyl)piperazin-1-yl)pyridin-2-yl)sulfonyl)cyclopropane-1-carboxamide]	91	13	–	640	512
Cc1ccc(C2CCCCC2)c(OC2(C(=O)NS(=O)(=O)c3cccc(N[C@H]4C[C@@H](O)C4)n3)CC2)c1 [Example 2-36, 1-(2-Cyclohexyl-5-methylphenoxy)-N-((6-((cis-3-hydroxycyclobutyl)amino)pyridin-2-yl)sulfonyl)cyclopropane-1-carboxamide]	152	44	–	2090	432
C[C@]1(O)CCN(c2cccc(S(=O)(=O)NC(=O)C3(Oc4cc(Cl)ccc4C4CC5(CCC5)C4)CC3)n2)C1 (single isomer, unassigned) [Example 7-2-1]	214.4	289	–	1420	674
Cc1ccc(C2CCCCC2)c(OC2(C(=O)NS(=O)(=O)c3cccc(N4CC(O)C4)n3)CC2)c1 [Example 2-1, 1-(2-Cyclohexyl-5-methylphenoxy)-N-((6-(3-hydroxyazetidin-1-yl)pyridin-2-yl)sulfonyl)cyclopropanecarboxamide]	97	5	–	2360	668
Cc1ccc(C2CCCCC2)c(OC2(C(=O)NS(=O)(=O)c3cccc(N(C)C)n3)CC2)c1 [Example 2-25, 1-(2-Cyclohexyl-5-methylphenoxy)-N-((6-(dimethylamino)pyridin-2-yl)sulfonyl)cyclopropanecarboxamide]	89	1	–	1440	661
Cc1ccc(C2CCC3(CCC3)OC2)c(OC2(C(=O)NS(=O)(=O)c3cccc(N4CCC(C)(O)CC4)n3)CC2)c1 (single isomer, unassigned) [Example 11-4-1, N-((6-(4-hydroxy-4-methylpiperidin-1-yl)pyridin-2-yl)sulfonyl)-1-(5-methyl-2-(5-oxaspiro[3.5]nonan-7-yl)phenoxy)cyclopropane-1-carboxamide]	60.8	1080	460.1	2260	–
Cc1ccc(C2CCC3(CCCC3)OC2)c(OC2(C(=O)NS(=O)(=O)c3cccc(N4CCC(O)(c5ccc(Cl)cc5)CC4)n3)CC2)c1 (single isomer, unassigned) [Example 11-3-1, N-((6-(4-(4-chlorophenyl)-4-hydroxypiperidin-1-yl)pyridin-2-yl)sulfonyl)-1-(5-methyl-2-(6-oxaspiro[4.5]decan-8-yl)phenoxy)cyclopropane-1-carboxamide]	100.3	117	380.3	680	–
Cc1ccc(C2CCCCC2)c(OC2(C(=O)NS(=O)(=O)c3cccc(N4CCC5(CCCC5N)CC4)n3)CC2)c1 (stereo not drawn) [Example 2-20, N-((6-(1-Amino-8-azaspiro[4.5]decan-8-yl)pyridin-2-yl)sulfonyl)-1-(2-cyclohexyl-5-methylphenoxy)cyclopropanecarboxamide]	122	198	–	2540	354

Results, then the compound that gave them:

MTECC24 CFHBEC-Amax % (delF508-CFTR) [%]	EC50 (delF508-CFTR) [nM]	DelF508-CFTR-HRP Amax % (delF508-CFTR-HRP) [%]	EC50 (delF508-CFTR-HRP) [nM]	Emax (delF508-CFTR-HRP) [%]	Compound
81.1	213	–	1290	543	C[C@@H]1CN(c2cccc(S(=O)(=O)NC(=O)C3(Oc4cc(Cl)ccc4C4CC5(CCC5)C4)CC3)n2)CCO1 [Example 7-13, (R)-1-(5-Chloro-2-(spiro[3.3]heptan-2-yl)phenoxy)-N-((6-(2-methylmorpholino)pyridin-2-yl)sulfonyl)cyclopropane-1-carboxamide]
138	156	–	2180	314	Cc1ccc(C2CCC(F)(F)C2)c(OC2(C(=O)NS(=O)(=O)c3cccc(N4CCC[C@@H](CO)C4)n3)CC2)c1 (single isomer, unassigned) [Example 4-7]
82	10	–	2810	590	Cc1ccc(C2CCCC2)c(OC2(C(=O)NS(=O)(=O)c3cccc(NC[C@H](C)O)n3)CC2)c1 [Example 4-5, (S)-1-(2-Cyclopentyl-5-methylphenoxy)-N-((6-((2-hydroxypropyl)amino)pyridin-2-yl)sulfonyl)cyclopropane-1-carboxamide]
203.9	116	–	760	446	CC(C)(C)C1CCC(Oc2ccc(Cl)cc2OC2(C(=O)NS(=O)(=O)c3cccc(N4CC[C@H](O)C4)n3)CC2)CC1 (stereo partly drawn) [Example 6-7, (S)-1-(2-((4-(tert-butyl)cyclohexyl)oxy)-5-chlorophenoxy)-N-((6-(3-hydroxypyrrolidin-1-yl)pyridin-2-yl)sulfonyl)cyclopropanecarboxamide]
43	50	–	2150	196	Cc1ccc(-c2ccccc2C(F)(F)F)c(OC2(C(=O)NS(=O)(=O)c3cccc(N4CC[C@H](O)C4)n3)CC2)c1 [Example 5-14, (S)—N-((6-(3-Hydroxypyrrolidin-1-yl)pyridin-2-yl)sulfonyl)-1-((4-methyl-2′-(trifluoromethyl)-[1,1′-biphenyl]-2-yl)oxy)cyclopropane-1-carboxamide]
80	11	–	2200	388	Cc1ccc(CC(C)C)c(OC2(C(=O)NS(=O)(=O)c3cccc(N4CCC[C@@H](CO)C4)n3)CC2)c1 [Example 4-8, (R)-N-((6-(3-(hydroxymethyl)piperidin-1-yl)pyridin-2-yl)sulfonyl)-1-(2-isobutyl-5-methylphenoxy)cyclopropane-1-carboxamide]

Source: patent US20220033407A1, “N-(pyridin-2-ylsulfonyl)cyclopropanecarboxamide Derivatives and their Use in the Treatment of Disease” (NOVARTIS AG, priority 2018, published 2022)
